# Where “and” joins values, the source holds several entries; their conditions need not be identical. Identical values can stand only once. Entries after “also recorded” stand apart in the source; their conditions may differ.
# Tests used:
# potato 5-lipoxygenase = experiment: 5-Lipoxygenase enzyme inhibitory activity; assay type: biochemical; details: for 5-Lipoxygenase inhibitory activity IC50 values: potato 5-lipoxygenase, linoleic acid substrate
# Protocol: 5-Lipoxygenase enzyme inhibitory activity was measured using the method of Schewe et al. (Adv Enzymol, Vol 58: pp 191-272, 1986), modified by Reddanna et. al., (Methods of Enzymology, Vol 187: pp 268-277, 1990). The assay mixture contained 80 μM linoleic acid and sufficient amount of potato 5-lipoxygenase in 50 mM phosphate buffer (pH 6.3). The reaction was initiated by the addition of enzyme buffer mix to linoleic acid and the enzyme activity was monitored as the increase in absorbance at 234 nm. The reaction was monitored for 120 sec and the inhibitory potential of the test substances was measured by incubating various concentrations of test substances two minutes before the addition of linoleic acid. All assays were performed three times. The IC50 values were calculated from the plot drawn of the concentrations of test substances versus percentage inhibition.
# [1] = test system: adipocyte fatty acid-binding protein (aP2); experiment: Down-regulation of aP2 protein expression in LPS-induced THP-1 derived macrophages (Western blot); assay type: cell-based, human; details: 5 μg/ml, 2 h pretreatment, LPS 100 ng/ml 16 h, normalized to actin
# Protocol: The inventors also assessed the effect of α-mangostin and γ-mangostin on adipocyte fatty acid-binding protein aP2 expression in human monocytes-macrophage cells in a cell based in vitro model. In this experiment, THP-1 human monocyte-macrophage cells were pre-treated with 5 μg/ml of γ-mangostin or α-mangostin for 2 h and thereafter primed with LPS to induce the inflammatory response. The cellular proteins were extracted by cell lysis buffer and subjected to immuno-western blot to detect the modulation of expression of aP2 protein.
# Down-regulation of aP2 protein expression by α-mangostin and γ-mangostin was evaluated in a cell based in vitro model. […] The protein content was measured by Coomassie blue based Bradford method and equal amount of cellular protein lysates (2 μg) was resolved in 15% SDS-Polyacrylamide gels. […] The aP2 protein expression was specifically detected by chemiluminescent substrate (Pierce, USA); detection of chemiluminescent bands and densitometric analyses were carried out on Kodak 4000 mM image station (supplied by Kodak, USA). The same nitrocellulose blots were stripped and re-probed with anti-actin antibody (Sigma Chemical CO, USA) and actin protein expression was recorded as an indication of equal protein loading in each lane. […]
# TNF-α = experiment: Inhibition of LPS-induced TNF-α in THP-1 human monocytes (EIA); assay type: cell-based; details: THP-1 cells, 2 h pretreatment, 100 ng/ml LPS 4 h
# Protocol: Inhibition of Tumor necrosis factor-α (TNF-α) in vitro by α-mangostin and γ-mangostin: The anti-inflammatory activities of α-mangostin, γ-mangostin and composition-I were assessed in a cell based in vitro assay. Briefly, THP-1 human monocytes cells were washed and re-suspended in phenol red free Dulbecco's Modified Eagle's Medium (DMEM) supplemented with 1% fetal Bovine serum (FBS). Equal number of cells was added to each well of a 96-well TC plate and the cells were pretreated for 2 h with various concentrations of test substances (ranging from 0.5 to 50 μg/ml; solutions prepared in culture medium from a stock solution containing 50 mg/l mL DMSO of each test compound) of α-mangostin, γ-mangostin and composition-I. The inflammatory response was induced by treatment with 100 ng/ml of LPS for 4 h at 37° C. in presence of 5% CO2. The vehicle control culture wells received 0.1% DMSO in culture medium. The cell culture supernatants were collected and assessed for secretary pro-inflammatory cytokine, TNFα. The TNF-α concentration was quantitatively measured by highly specific and sensitive Enzyme Immuno Assay (EIA) kit supplied by R&D Systems, USA. The enzyme immuno assay was performed based on the protocol provided by the vendor. The inhibitory concentration for 50% inhibition (IC50) of TNF-α was determined from a plot drawn for ingredient concentration against TNF-α level.
Compound,5-Lipoxygenase inhibitory activity IC50 values (potato 5-lipoxygenase),Inhibition of LPS induced aP2 protein expression [1],IC50 for TNFα (TNF-α),Relative potency of O-demethylxanthone versus O-methyl counterpart (potato 5-lipoxygenase; comparison in words)
COc1c(O)cc2oc3cc(O)c(CC=C(C)C)c(O)c3c(=O)c2c1CCC(C)(C)O [Garcinone D],5.7 µg/mL,,,
COc1c(O)cc2oc3cc(O)c(CC=C(C)C)c(O)c3c(=O)c2c1CC=C(C)C [α-mangostin],,inhibition of aP2 protein expression,,
CC(C)=CCc1c(O)cc2oc3cc(O)c(O)c(CC=C(C)C)c3c(=O)c2c1O [γ-mangostin],0.52 µg/mL,more potent inhibitor of aP2 in vitro compared to α-mangostin; also recorded: inhibited the LPS induced aP2 expression more strongly compared to α-mangostin,3.32 µg/mL and 3.322 µg/mL,
Garcinone C,2.8 µg/mL,,,"relatively higher potency compared to its natural O-methyl counterpart, garcinone D"

# Source: patent US8853261B2, “Nutraceutical composition from Garcinia mangostana” (Laila Nutraceuticals, priority 2008, dated 2014)
